Assays:
PC9, Hep1 and A549 = conditions: 0.5 microgram/ml conatumumab
Experimental: FIG. 7: (A) Cell viability for the BRD2 inhibitor iBET in the presence of 0.5 microgram/ml conatumumab. […] Cells were seeded into 384 well plates. Drugs were added after 24 hours. Cell viability was measured using cell titer blue after 96 hours of drug treatment.

cFLIP (CFLAR) = experiment: RNA sequencing of NEO2734 treated cells; type: cell-based; conditions: 0.5 μM NEO2734 for 1 week; PC9, TFK, EGI and Hep1
Experimental: RNA sequencing was performed on PC9, Hep1, EGI and TFK cells treated with 0.5 μM NEO2734 for 1 week. The expression changes of cFLIP and TNFRSF10B (DR5) were plotted.
To investigate the mechanism of this synergy effect from this drug combination, RNA sequencing was performed on NEO2734 treated cells (using four independent cell models PC9, TFK, EGI and Hep1) to identify genes that might be critical for the DR5 signaling pathway. […] This might explain why BRD2 inhibition may enhance the responsiveness of conatumumab.

[1] = test system: PC9, TFK, EGI and Hep 1 cancer cells, and BJ and Rpe1 primary cells; experiment: Dose-response curves (cell titer blue) for NEO2734 in the presence of conatumumab; type: cell-based, human; conditions: 0.5 microgram/ml conatumumab, 96 hours
From the text: FIG. 6: (A) Dose-response curves determined by cell viability using cell titer blue for NEO2734 in the presence of 0.5 microgram/ml conatumumab. Shown are dose response curves for PC9, TFK, EGI and Hep 1 cancer cells, and BJ and Rpe1 primary cells. (B) RNA sequencing results.
PC9 human lung cancer cells, Panc1 human pancreatic cancer cell line of ductal cell origin, Hep3B human epithelial hepatoma cells, H1975 human epithelial lung cancer cells, TFK bile duct cancer cells, EGI bile duct cancer cells, BJ human foreskin fibroblast cells and Rpe1 human retina pigmented epithelial cells were obtained from ATCC.
Cells were seeded into 384 well plates. Drugs were added after 24 hours.
To validate this finding, a BRD2 inhibitor, NEO2734, was used to combine with a DR5 activation antibody (conatumumab) and to test the combination in multiple cancer models, including a pancreatic cancer line of ductal cell origin Panc1, two epithelial hepatoma cell lines Hep3B and Hep1, two bile duct cancer cell lines TFK and EGI, two epithelial cancer lines PC9 and H1975. In addition, two primary cell lines BJ and Rpe1 were used to determine whether this drug combination would be less harmful to healthy cells.

[2] = test system: proliferating and senescent A549 and Hep1 cells; experiment: Colony formation of proliferating and therapy-induced senescent A549 and Hep1 cells with NEO2734 and conatumumab; type: cell-based
Experimental: FIG. 8: Cell viability was assessed by colony formation assay using low doses of NEO2734 and conatumab. (A) Cell viability was assessed by a colony formation assay using low dose 0.25 μM of NEO2734 and 0.125 μg/ml conatumumab on Hep1 cells made senescent by one-week treatment of 0.5 μM alisertib, 1 μM barasertib, 50 nM CFI-400945 or 2 μM Etoposide. (B) Colony formation using low dose 0.25 μM of NEO2734 and 0.125 μg/ml conatumumab on Hep1, 0.25 μM of NEO2734 and 1 μg/ml conatumumab on A549 cells made senescent by one-week treatment of different senescence inducers (0.5 μM PF-06873600, 100 nM doxorubicin, 1 μM TAS-119 or combination of 5 nM trametinib plus 0.5 μM palbociclib.
Cells were treated with 0.5 μM alisertib for 7 days to induce senescence. These cells were seeded into 12 well plates. After 24 hours, the cells were treated with 0.5 μM NEO 2734 and indicated doses of conatumumab for 96 hours. Cells were fixed with 4% paraformaldehyde after 96 hours of drug treatment. The plates were stained with 2 mL 0.5% (w/v) crystal violet in H2O and photographed. Further, colony formation was investigated using 0.25 μM of NEO2734 and 0.125 μg/ml conatumumab on Hep1 cells made senescent by one-week treatment of 0.5 μM alisertib, 1 μM barasertib, 50 nM CFI-400945 or 2 μM Etoposide. Furthermore, colony formation was investigated using 0.25 μM of NEO2734 and 1 μg/ml conatumumab on A549 cells made senescent by one-week treatment of different senescence inducers, namely 0.5 μM PF-06873600, 100 nM doxorubicin or combination of 5 nM trametinib plus 0.5 μM palbociclib. Doxorubicin, PF-06873600, palbociclib and trametinib were purchased from Selleckchem (Houston, TX, USA).

[3] = test system: Alisertib induced senescent and proliferating A549, H2030, H358, HCT116, MDA-MB-231 and MCF-7 cells; experiment: Viability of alisertib-induced senescent versus proliferating cancer cell line panel (CellTiter-Blue dose response, Incucyte, colony formation); type: cell-based
Experimental: FIG. 2: (A) Western blot analysis of DR4, DR5, cFLIP in A549 cells treated with different senescence inducers for 1 week. VINC served as loading control. (B) A549 cells were firstly treated with 0.5 μM alisertib for 7 days to induce senescence. Afterwards, the senescent cells were suspended from alisertib, re-seeded in a 96-well plate then switched to 200 ng/ml recombinant Lz-TRAIL. The growth curves were measured by Incucyte cell proliferation assay. (C) Alisertib induced senescent and proliferating A549, H2030, H358, HCT116, MDA-MB-231 and MCF-7 cells were seeded into a 384-well plate and treated with Lz-TRAIL for 120 hrs. Cell viability were measured using CellTiter-Blue to generate dose response curve. (D) Senescence associated beta-galactosidase (SA-β-gal) staining in a cell line panel after treated with 0.5 μM alisertib for one week. (E) Cell viability […] was assessed by colony formation assay in the cell line panel. The cells were firstly treated with 0.5 μM alisertib for 7 days to induce senescence. […]
FIG. 3: (A) Human NF-kB pathway protein array analysis on the senescent A549 cells generated with 0.5 μM alisertib for 7 days. […] (C) Cell viability was assessed by colony formation assay in the A549 cells lentiviral shRNAs against DR4 or DR5. […] Cell viability were measured using CellTiter-Blue to generate dose response curve.

[4] = test system: senescent A549 and Hep1 cells; experiment: Colony formation of A549 and Hep1 cells made senescent with other senescence inducers; type: cell-based; conditions: A549 and Hep1 made senescent with PLk4 inhibitor, etoposide and barasertib; treatment 5 days
Experimental: (§1) FIG. 4: (A) Tumor growth of Hep1 parental cells in the flanks of Balb/c nude mice subcutaneously injected with 1*10^7 cells. When tumors reached approximately 200 mm^3, assigned to either control, 30 mg/kg alisertib (oral gavage), 5 μg conatumumab (intraperitoneal injection) and the combination. The drugs were administrated during week days and suspended during the weekend. (B) Tumor growth of A549 parental cells in the flanks of Balb/c nude mice subcutaneously injected with 5*10^6 cells. When tumors reached approximately 200 mm3, assigned to either control, 30 mg/kg alisertib (oral gavage), 10 μg conatumumab (intraperitoneal injection) and the combination. The drugs were administrated during week days and suspended during the weekend. (C-E) Cell viability was assessed by colony formation assay in the A549 and Hep1 cells. The cells were firstly treated with different senescence inducers for 7 days to induce senescence. Afterwards, the senescent cells were suspended from the senescence inducers then re-seeded in a 12-well plate and switched to conatumumab or Lz-TRAIL treatment for 5 days. Proliferating cells were taken as a control. At the end of assay, cells were fixed, stained, and photographed.

Hep1 liver cancer cells = experiment: Tumor growth of Hep1 xenografts in Balb/c nude mice; type: in vivo; conditions: Hep1 xenograft; 30 mg/kg alisertib oral gavage, 5 μg conatumumab intraperitoneal, week days
Experimental: as §1
(§2) To test the treatment in vivo, we engrafted Hep1 liver cancer cells and A549 lung cancer cells into immunodeficient nude mice. […]

senescent cells = experiment: Killing of senescent cells by conatumumab in vitro, time; type: cell-based
A549 lung cancer cells = experiment: Tumor growth of A549 xenografts in Balb/c nude mice; type: in vivo; conditions: A549 xenograft; 30 mg/kg alisertib oral gavage, 10 μg conatumumab intraperitoneal, week days
Experimental: as §1, §2

TNFRSF10B (DR5), DR4 = experiment: RNA sequencing of a senescent cell line panel, death receptor expression; type: cell-based; conditions: data not shown
Experimental: RNA sequencing was performed on A549 cells treated with 0.5 alisertib μM for 1 week, and followed by gene set enrichment analysis (GSEA) of alisertib treated cells versus untreated control for multiple independent NF-KB signaling gene sets. (B) Real-time PCR analysis of DR4, DR5, cFLIP, TRAIL in A549 cells treated with 0.5 μM alisertib, 100 nM CFI-400945 and 2 μM Etoposide. GAPDH served as control.

Compound: iBET
- effect on conatumumab responsiveness (cell viability) (PC9, Hep1 and A549): efficiently enhance the responsiveness of conatumumab

Compound: Cc1cc(-c2ccc3nc(C4CCOCC4)n(CCOC(F)(F)F)c3c2)cn(C)c1=O [NEO2734, 1,3-dimethyl-5-[2-(oxan-4-yl)-3-[2-(trifluoromethoxy)ethyl]benzimidazol-5-yl]pyridin-2-one]
- cFLIP (CFLAR) expression change (cFLIP (CFLAR)): highly down-regulated
- effect on conatumumab responsiveness in primary cells (cell viability) ([1]; BJ and Rpe1 primary cells): not in primary cells
- effect on conatumumab responsiveness in cancer cells (cell viability) ([1]; cancer cells): enhance the conatumumab responsiveness
- effect on senolytic effect of DR5 activation (colony formation) ([2]; alisertib-induced senescent and proliferating A549 (1 μg/ml conatumumab) and Hep1 (0.125 μg/ml conatumumab)): improve the senolytic effect of DR5 activation

Compound: conatumumab: DR5 agonistic IgG1 antibody; purchased from Creative Biolabs, or generated by expression of SEQ 1 and SEQ 3
- killing of senescent versus proliferating cells (cell viability) ([3]; alisertib 0.5 μM 7 days induced senescence, treatment 120 hrs, lung, breast, colon and liver cancer models): selective killing of senescent cells
- senolytic effect (colony formation) [4]: strong senolytic effect
- tumor growth (Hep1 liver cancer cells): limited tumor growth inhibition
- time in which senescent cells are killed (senescent cells): 24 h
- tumor growth (A549 lung cancer cells): limited tumor growth inhibition
- dosage that will not lead to a significant impact on alisertib induced senescent cells ([2]; A549, titration): 1 µg/mL
- dosage that will not lead to a significant impact on alisertib induced senescent cells ([2]; Hep1, titration): 0.125 µg/mL

Compound: CC1(C)CCC(c2ccc(Cl)cc2)=C(CN2CCN(c3ccc(C(=O)NS(=O)(=O)c4ccc(N[C@H](CCN5CCOCC5)CSc5ccccc5)c(S(=O)(=O)C(F)(F)F)c4)cc3)CC2)C1 [ABT-263]
- senolytic effect in cell line panel (colony formation), TRAIL compared with ABT-263 ([3]; alisertib-induced senescent cells, 12-well plate): resistant

Compound: COc1cc(Nc2ncc3c(n2)-c2ccc(Cl)cc2C(c2c(F)cccc2OC)=NC3)ccc1C(=O)O [alisertib, 4-[[9-chloro-7-(2-fluoro-6-methoxyphenyl)-5H-pyrimido[5,4-d][2]benzazepin-2-yl]amino]-2-methoxybenzoic acid]
- DR4 expression in induced senescent cells (TNFRSF10B (DR5), DR4): not DR4
- TNFRSF10B (DR5) expression in induced senescent cells (TNFRSF10B (DR5), DR4): upregulated
- tumor growth (Hep1 liver cancer cells): limited tumor growth inhibition
- tumor growth (A549 lung cancer cells): limited tumor growth inhibition

Compound: COc1cc([C@@H]2c3cc4c(cc3[C@@H](O[C@@H]3O[C@@H]5CO[C@@H](C)O[C@H]5[C@H](O)[C@H]3O)[C@H]3COC(=O)[C@H]23)OCO4)cc(OC)c1O [etoposide, (5S,5aR,8aR,9R)-5-[[(2R,4aR,6R,7R,8R,8aS)-7,8-dihydroxy-2-methyl-4,4a,6,7,8,8a-hexahydropyrano[3,2-d][1,3]dioxin-6-yl]oxy]-9-(4-hydroxy-3,5-dimethoxyphenyl)-5a,6,8a,9-tetrahydro-5H-[2]benzofuro[6,5-f][1,3]benzodioxol-8-one]
- DR4 expression in induced senescent cells (TNFRSF10B (DR5), DR4): not DR4
- TNFRSF10B (DR5) expression in induced senescent cells (TNFRSF10B (DR5), DR4): upregulated

From patent US20240382499A1, “INDUCERS OF SENESCENCE, IN COMBINATION WITH A SELECTIVE DEATH RECEPTOR 5 (DR5) AGONIST, FOR USE IN A METHOD OF TREATING CANCER” (Stichting Het Nederlands Kanker Instituut-Antoni van …, priority 2021, published 2024)
